Laboratory results published in patent US11046680B1, “Heteroaryl-substituted triazoles as APJ receptor agonists” (priority 2016, dated 2021).

What follows are molecules tested against human APJ receptor (Homo sapiens (Human), UniProt P35414) (assay: biochemical). Settings: [35S]GTPγS binding, CHO membranes expressing human APJ receptor; read-out: Activity hAPJ SPA EC50 IP.
Type: biochemical
Summary of the method: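 GTPγS binding on membranes from CHO cells stably expressing FLAG-tagged human APJ, with optimized GDP, MgCl2 and NaCl; incubated 90 min at RT before imaging read-out.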

Chain of human APJ receptor (P35414 whole entry): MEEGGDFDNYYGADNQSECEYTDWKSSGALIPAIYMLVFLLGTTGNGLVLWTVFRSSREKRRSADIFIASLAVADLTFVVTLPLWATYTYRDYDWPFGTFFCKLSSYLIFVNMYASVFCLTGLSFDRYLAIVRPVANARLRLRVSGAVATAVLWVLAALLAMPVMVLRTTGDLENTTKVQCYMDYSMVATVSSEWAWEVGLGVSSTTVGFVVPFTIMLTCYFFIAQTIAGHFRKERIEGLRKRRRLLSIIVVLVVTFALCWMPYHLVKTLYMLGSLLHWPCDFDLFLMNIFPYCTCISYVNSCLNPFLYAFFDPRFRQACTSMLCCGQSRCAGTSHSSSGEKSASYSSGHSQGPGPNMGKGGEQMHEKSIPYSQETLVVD

Going from `COc1cccc(OC)c1-n1c(NS(=O)(=O)[C@H](C)[C@@H](C)c2ncc(C)cn2)nnc1-c1csc(C)n1` (stereo in doubt) [Example 2.0, (2R,3S)-N-(4-(2,6-dimethoxyphenyl)-5-(2-methylthiazol-4-yl)-4H-1,2,4-triazol-3-yl)-3-(5-methylpyrimidin-2-yl)butane-2-sulfonamide] to `COc1cccc(OC)c1-n1c(NS(=O)(=O)[C@H](C)[C@@H](C)c2ncc(C)cn2)nnc1-c1nc(C)cs1` (stereo in doubt) [Example 1.0, (2R,3 S)-N-(4-(2,6-dimethoxyphenyl)-5-(4-methylthiazol-2-yl)-4H-1,2,4-triazol-3-yl)-3-(5-methylpyrimidin-2-yl)butane-2-sulfonamide], the EC50 falls from 0.32 nM to 0.13 nM (2.5-fold). The second is the more potent here.

Going from `COc1cnc([C@H](C)[C@H](C)S(=O)(=O)Nc2nnc(-c3ccn(C)n3)n2-c2c(OC)ncnc2OC)nc1` [Example 297.0] to `COc1cnc([C@@H](C)[C@@H](C)S(=O)(=O)Nc2nnc(-c3ccn(C)n3)n2-c2c(OC)ncnc2OC)nc1` [Example 298.0], the EC50 rises from 0.14 nM to 1 nM (7.1-fold).

First: COc1ccc(S(C)(=O)=O)cc1-n1c(NS(=O)(=O)CCc2ccc(F)cc2)nnc1-c1cccs1 [Example 358.0, 2-(4-Fluorophenyl)-N-(4-(2-methoxy-5-(methylsulfonyl)phenyl)-5-(thiophen-2-yl)-4H-1,2,4-triazol-3-yl)ethanesulfonamide]
Second: O=S(=O)(CCc1ccc(Cl)cc1)Nc1nnc(-c2ccc(F)s2)n1-c1ccccc1OC(F)F [Example 244.0, 2-(4-chlorophenyl)-N-(4-(2-(difluoromethoxy)phenyl)-5-(5-fluoro-2-thiophenyl)-4H-1,2,4-triazol-3-yl)ethanesulfonamide]
The EC50 of the first is 1.6-fold higher: 34 nM for the first, 21 nM for the second. The second is the more potent here.

Compared with `COc1cccc(OC)c1-n1c(NS(=O)(=O)[C@H](C)[C@@H](C)c2ncc(F)cn2)nnc1-c1nc(C)cs1` (single isomer, unassigned) [Example 121.0], `COc1cccc(OC)c1-n1c(NS(=O)(=O)[C@H](C)[C@H](C)c2ncc(F)cn2)nnc1-c1nc(C)cs1` (single isomer, unassigned) [Example 165.0] is 9.2-fold higher in EC50: 12 nM for the first, 110 nM for the second.

Compared with `COc1cccc(OC)c1-n1c(NS(=O)(=O)[C@H](C)Cc2ncc(F)cn2)nnc1-c1cc(C)no1` (single isomer, unassigned) [Example 63.0, (R)-N-(4-(2,6-dimethoxyphenyl)-5-(3-methylisoxazol-5-yl)-4H-1,2,4-triazol-3-yl)-1-(5-fluoropyrimidin-2-yl)propane-2-sulfonamide or (R)-N-(4-(2,6-dimethoxyphenyl)-5-(3-methylisoxazol-5-yl)-4H-1,2,4-triazol-3-yl)-1-(5-fluoropyrimidin-2-yl)propane-2-sulfonamide], `COc1cccc(OC)c1-n1c(NS(=O)(=O)[C@H](C)Cc2ncc(F)cn2)nnc1-c1nc(C)cs1` [Example 103.0] is 10-fold lower in EC50: 85 nM for the first, 8.4 nM for the second.

Compared with `CCc1csc(-c2nnc(NS(=O)(=O)[C@H](C)Cc3ncc(F)cn3)n2-c2c(OC)cccc2OC)n1` (single isomer, unassigned) [Example 105.0, (R)-N-(4-(2,6-dimethoxyphenyl)-5-(4-ethylthiazol-2-yl)-4H-1,2,4-triazol-3-yl)-1-(5-fluoropyrimidin-2-yl)propane-2-sulfonamide or (S)-N-(4-(2,6-dimethoxyphenyl)-5-(4-ethylthiazol-2-yl)-4H-1,2,4-triazol-3-yl)-1-(5-fluoropyrimidin-2-yl)propane-2-sulfonamide], `COc1cccc(OC)c1-n1c(NS(=O)(=O)[C@H](C)Cc2ncc(F)cn2)nnc1-c1ccn(C)c1` (single isomer, unassigned) [Example 35.0, (R)-N-(4-(2,6-dimethoxyphenyl)-5-(1-methyl-1H-pyrrol-3-yl)-4H-1,2,4-triazol-3-yl)-1-(5-fluoropyrimidin-2-yl)propane-2-sulfonamide or (S)-N-(4-(2,6-dimethoxyphenyl)-5-(1-methyl-1H-pyrrol-3-yl)-4H-1,2,4-triazol-3-yl)-1-(5-fluoropyrimidin-2-yl)propane-2-sulfonamide] is 19-fold higher in EC50: 1.4 nM for the first, 27 nM for the second.

First: COc1cccc(OC)c1-n1c(NS(=O)(=O)[C@@H](C)[C@H](OC)c2ncc(C)cn2)nnc1-c1noc2ccccc12 [Example 87.0, (1R,2S)-N-(5-(benzo[d]isoxazol-3-yl)-4-(2,6-dimethoxyphenyl)-4H-1,2,4-triazol-3-yl)-1-methoxy-1-(5-methylpyrimidin-2-yl)propane-2-sulfonamide]
Second: COc1cccc(OC)c1-n1c(NS(=O)(=O)[C@@H](C)[C@H](OC)c2ncc(C)cn2)nnc1-c1n[nH]c2ccc(Cl)cc12 [Example 412.0, (1R,2S)-N-(5-(5-chloro-1H-indazol-3-yl)-4-(2,6-dimethoxyphenyl)-4H-1,2,4-triazol-3-yl)-1-methoxy-1-(5-methylpyrimidin-2-yl)propane-2-sulfonamide]
The EC50 of the first is 1.7-fold lower: 82 nM for the first, 140 nM for the second. The first is the more potent here.

Going from `COc1cccc(OC)c1-n1c(NS(=O)(=O)[C@@H](C)[C@H](OC)c2ncc(Cl)cn2)nnc1-c1cc(C)on1` [Example 496.0, (1R,2S)-1-(5-chloropyrimidin-2-yl)-N-(4-(2,6-dimethoxyphenyl)-5-(5-methylisoxazol-3-yl)-4H-1,2,4-triazol-3-yl)-1-methoxypropane-2-sulfonamide] to `COc1cccc(OC)c1-n1c(NS(=O)(=O)[C@@H](C)[C@H](OC)c2ncc(C)cn2)nnc1-c1cc(C)[nH]n1` [Example 333.0, (1R,2S)-N-(4-(2,6-dimethoxyphenyl)-5-(5-methyl-1H-pyrazol-3-yl)-4H-1,2,4-triazol-3-yl)-1-methoxy-1-(5-methyl-2-pyrimidinyl)-2-propanesulfonamide], the EC50 rises from 0.62 nM to 1.5 nM (2.4-fold).

Compared with `COc1cccc(OC)c1-n1c(NS(=O)(=O)[C@@H](C)[C@H](OC)c2ncc(C)cn2)nnc1-c1ccc(Cl)s1` [Example 334.0, (1R,2S)-N-(5-(5-chloro-2-thiophenyl)-4-(2,6-dimethoxyphenyl)-4H-1,2,4-triazol-3-yl)-1-methoxy-1-(5-methyl-2-pyrimidinyl)-2-propanesulfonamide], `COc1cccc(OC)c1-n1c(NS(=O)(=O)[C@@H](C)[C@H](OC)c2ncc(C)cn2)nnc1-c1ncn(C)n1` [Example 204.0, (1R,2S)-N-(4′-(2,6-dimethoxyphenyl)-1-methyl-1H,4′H-3,3′-bi-1,2,4-triazol-5′-yl)-1-methoxy-1-(5-methyl-2-pyrimidinyl)-2-propanesulfonamide] is 100-fold higher in EC50: 0.52 nM for the first, 52 nM for the second.

Going from `CNC(=O)n1ccc(-c2nnc(NS(=O)(=O)[C@@H](C)Cc3ncc(F)cn3)n2-c2c(OC)cccc2OC)n1` (single isomer, unassigned) [Example 73.0, (R)-3-(4-(2,6-dimethoxyphenyl)-5-(2-(5-fluoropyrimidin-2-yl)-1-methylethylsulfonamido)-4H-1,2,4-triazol-3-yl)-N-methyl-1H-pyrazole-1-carboxamide or (S)-3-(4-(2,6-dimethoxyphenyl)-5-(2-(5-fluoropyrimidin-2-yl)-1-methylethylsulfonamido)-4H-1,2,4-triazol-3-yl)-N-methyl-1H-pyrazole-1-carboxamide] to `CCn1ccc(-c2nnc(NS(=O)(=O)[C@@H](C)[C@H](O)c3ncc(C)cn3)n2-c2c(OC)cccc2OC)n1` [Example 388.0, (1R,2S)-N-(4-(2,6-Dimethoxyphenyl)-5-(1-ethyl-1H-pyrazol-3-yl)-4H-1,2,4-triazol-3-yl)-1-hydroxy-1-(5-methylpyrimidin-2-yl)propane-2-sulfonamide], the EC50 falls from 29 nM to 0.37 nM (78-fold).

Compared with `COc1ccc([C@@H](C)[C@H](C)S(=O)(=O)Nc2nnc(-c3ccn(C)n3)n2-c2c(OC)ncnc2OC)nc1` [Example 458.0, (2S,3R)-N-(4-(4,6-dimethoxy-5-pyrimidinyl)-5-(1-methyl-1H-pyrazol-3-yl)-4H-1,2,4-triazol-3-yl)-3-(5-methoxy-2-pyridinyl)-2-butanesulfonamide], `Cc1cnc([C@@H](C)[C@H](C)S(=O)(=O)Nc2nnc(-c3ccn(C)n3)n2-c2c(F)cccc2F)cn1` [Example 231.0, (2S,3R)-N-(4-(2,6-difluorophenyl)-5-(1-methyl-1H-pyrazol-3-yl)-4H-1,2,4-triazol-3-yl)-3-(5-methyl-2-pyrazinyl)-2-butanesulfonamide] is 16-fold higher in EC50: 2.8 nM for the first, 46 nM for the second. The first is the more potent here.

Compared with `COc1cccc(OC)c1-n1c(NS(=O)(=O)[C@@H](C)[C@@H](OC(C)C)c2ncc(C)cn2)nnc1-c1cnn2c1CCC2` [Example 446.0, (1S,2S)-N-(5-(5,6-dihydro-4H-pyrrolo[1,2-b]pyrazol-3-yl)-4-(2,6-dimethoxyphenyl)-4H-1,2,4-triazol-3-yl)-1-isopropoxy-1-(5-methylpyrimidin-2-yl)propane-2-sulfonamide], `COc1cccc(OC)c1-n1c(NS(=O)(=O)[C@@H](C)[C@H](C)c2ncc(C)cn2)nnc1-c1ccn(C(F)F)n1` [Example 198.0, (2S,3R)-N-(5-(1-(difluoromethyl)-1H-pyrazol-3-yl)-4-(2,6-dimethoxyphenyl)-4H-1,2,4-triazol-3-yl)-3-(5-methyl-2-pyrimidinyl)-2-butanesulfonamide] is 3.7-fold lower in EC50: 0.74 nM for the first, 0.2 nM for the second. The second is the more potent here.

Compared with `COc1cccc(OC)c1-n1c(NS(=O)(=O)[C@@H](C)[C@H](OC)c2ncc(F)cn2)nnc1-c1cc(C)[nH]n1` [Example 345.0, (1R,2S)-N-(4-(2,6-dimethoxyphenyl)-5-(5-methyl-1H-pyrazol-3-yl)-4H-1,2,4-triazol-3-yl)-1-(5-fluoro-2-pyrimidinyl)-1-methoxy-2-propanesulfonamide], `COCC1(n2c(NS(=O)(=O)[C@@H](C)[C@H](OC)c3ncc(Cl)cn3)nnc2-c2n[nH]c3c2CCC3)CCC1` [Example 489.0] is 6.2-fold lower in EC50: 8.1 nM for the first, 1.3 nM for the second. The second is the more potent here.

For `COCC1(n2c(NS(=O)(=O)[C@@H](C)[C@@H](OC(C)C)c3ncc(C)cn3)nnc2-c2ccn(C)n2)CC1` [Example 462.0, (1S,2S)-N-(4-(1-(methoxymethyl)cyclopropyl)-5-(1-methyl-1H-pyrazol-3-yl)-4H-1,2,4-triazol-3-yl)-1-(5-methyl-2-pyrimidinyl)-1-(2-propanyloxy)-2-propanesulfonamide], the EC50 was 4.1 nM.
